From patent US9901621B2, “Composition for treating hyperlipidemia comprising oxyntomodulin derivative” (HANMI PHARM. CO., LTD., priority 2012, dated 2018)
Where a SMILES comes first, the peptide text is derived from it. [ ]: non-standard residue; d: D form. Aib = CC(C)(N)C(=O)O

Legend:
[1] = tested on: high-fat diet-induced hyperlipidemia hamsters; assay: Blood lipid levels in high-fat diet hamsters, comparison with VICTOZA (Example 6); format: in vivo, Golden Syrian hamsters; conditions: vs 35.5 nmol/kg VICTOZA s.c., 3.25 nmol/kg SEQ ID NO: 25-Fc or 8.96 nmol/kg SEQ ID NO: 23-Fc s.c.
Procedure: The effect of reducing lipid levels was compared between the oxyntomodulin derivative conjugate and known VICTOZA®.
As described in Example 5, hamsters were divided into a normal hamster group and hamster groups fed with a high-fat diet. The normal hamster group was administered subcutaneously with 5 ml/kg of DPBS once or more a week. The hamster groups fed with high-fat diet were divided into a group administered subcutaneously with 5 ml/kg of DPBS once or more a week, a group administered subcutaneously with 35.5 nmol/kg of VICTOZA® once or more a week, a group administered subcutaneously with 3.25 nmol/kg of the SEQ ID NO: 25-Fc conjugate, and a group administered subcutaneously with 8.96 nmol/kg of the SEQ ID NO:23-Fc conjugate, and the blood lipid levels of the groups were analyzed.

[2] = tested on: high-fat diet-induced hyperlipidemia hamsters; assay: Reduction in lipid levels in hyperlipidemia model hamsters (Example 5); format: in vivo, Golden Syrian hamsters; conditions: vs high-fat diet group, s.c. once a week for 2 weeks, 3.25 nmol/kg SEQ ID NO: 25-Fc or 8.96 nmol/kg SEQ ID NO: 23-Fc
Description: 8 week-old male hamsters (Golden Syrian hamsters, 120-130 g) were purchased from Vital River China. It is known that hamsters show blood lipid profiles similar to humans, unlike other rodents, and are sensitive to high-fat diets.
The animals were allowed access to a sterilized high-fat diet (Purina 5001 containing 11.5% maize oil, 11.5% coconut oil, 0.5% cholesterol, and 0.25% deoxycholate; Dyets, Bethlehem, Pa.) or a standard rodent diet (low fat, 2018; Harlan Teklad, Madison, Wis.). A normal diet group was allowed access to filtered and UV-sterilized tap water, and a high-fat diet group was allowed access to water containing 10% fructose. The animals were kept in a breeding chamber satisfying GLP standards under a 12-hr light/12-hr dark cycle (lighting: am 6 to pm 6), and all the experimental procedures were performed according to the standard guideline for animal experiments. Drug administration was started after 3 weeks of hyperlipidemia induction, and the animals were divided into four groups (n=6) as shown in Table 3 below.
(§1) Group 3 (hyperlipidemia-induced group+group administered with 3.25 nmol/kg of SEQ ID NO: 25-Fc conjugate) was fed with a high-fat diet to induce hyperlipidemia, and then administered with 3.25 nmol/kg of the SEQ ID NO: 25-Fc conjugate (prepared in Example 4) once a week at an injection dose of 5 ml/kg.
as §1, with “4” for “3”, “8.96” for “3.25”, “23-Fc” for “25-Fc”, “3)” for “4)”
Saline or the drug was administered into each group (n=6) for 2 weeks, and then the effects thereof on a reduction in lipid levels were analyzed.
Blood was collected from the hamsters which were administered or not administered with the long-acting oxyntomodulin derivative as described in Example 5-1, and the lipid levels of the blood were analyzed using HITACHI 7020.
FIGS. 1 to 5 show the change in blood triglyceride levels (FIG. 1), the change in blood total cholesterol levels (FIG. 2), the change in LDL-cholesterol levels (FIG. 3), blood HDL-cholesterol levels (FIG. 4), and the change in the blood HDL/LDL-cholesterol ratio (FIG. 5). The obtained results were statistically processed, and the mean values and the standard deviations of the mean values were calculated. In the verification of significance between the groups (n=6), data were statistically processed using Dunnett's test of one-way ANOVA, and a value of p<0.05 was considered statistically significant.

[3] = target: T1, human glucagon receptor (Homo sapiens, UniProt P47871); assay: cAMP response in CHO cells expressing glucagon receptor (CHO/GCGR); format: cell-based
T1 construct: Using a portion corresponding to the ORF (open reading frame) of cDNA; expressed in transfected cells; host or cells: CHO DG44
T1 sequence (P47871 26-477): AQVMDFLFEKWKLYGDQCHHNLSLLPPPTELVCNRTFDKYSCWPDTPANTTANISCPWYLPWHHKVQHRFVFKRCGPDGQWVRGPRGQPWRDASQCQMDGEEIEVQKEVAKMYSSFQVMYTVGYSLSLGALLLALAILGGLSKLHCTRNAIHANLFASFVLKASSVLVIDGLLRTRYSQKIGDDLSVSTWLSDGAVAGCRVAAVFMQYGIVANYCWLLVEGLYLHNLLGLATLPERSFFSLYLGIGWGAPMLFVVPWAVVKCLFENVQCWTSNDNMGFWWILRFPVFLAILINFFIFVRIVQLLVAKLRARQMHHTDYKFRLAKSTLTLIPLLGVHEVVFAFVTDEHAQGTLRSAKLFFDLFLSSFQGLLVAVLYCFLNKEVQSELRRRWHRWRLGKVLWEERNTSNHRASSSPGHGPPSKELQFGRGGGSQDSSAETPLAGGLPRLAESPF
Procedure: The PCR product was cloned into the known animal cell expression vector x0GC/dhfr, thereby constructing the recombinant vector x0GC/GCGR.
(§2) The recombinant vector x0GC/GCGR was introduced into a CHO DG44 cell line, cultured in DMEM/F12 (10% FBS) medium, using lipofectamine (Invitrogene, USA), to obtain a transformant. The transformant was incubated in a selective medium containing 1 mg/mL G418 and 10 nM methotraxate, and monoclonal cell lines were selected therefrom.
(§3) The cultured cells were washed with KRB buffer, suspended in 40 ml of 1 mM IBMX-containing KRB buffer, and then allowed to stand at room temperature for 5 minutes. […] Then, 20 ml of cell lysis buffer was added to lyse the cells, and the concentration of cAMP in each of the cell lysates was measured using a cAMP assay kit (Molecular Device, USA).

[4] = target: T2, human GLP-1 receptor (Homo sapiens, UniProt P43220); assay: cAMP response in CHO cells expressing GLP-1 receptor (CHO/GLP-1R); format: cell-based
T2 construct: Using a portion corresponding to the ORF (open reading frame) of cDNA; expressed in transfected cells; host or cells: CHO DG44
T2 sequence (P43220 24-463): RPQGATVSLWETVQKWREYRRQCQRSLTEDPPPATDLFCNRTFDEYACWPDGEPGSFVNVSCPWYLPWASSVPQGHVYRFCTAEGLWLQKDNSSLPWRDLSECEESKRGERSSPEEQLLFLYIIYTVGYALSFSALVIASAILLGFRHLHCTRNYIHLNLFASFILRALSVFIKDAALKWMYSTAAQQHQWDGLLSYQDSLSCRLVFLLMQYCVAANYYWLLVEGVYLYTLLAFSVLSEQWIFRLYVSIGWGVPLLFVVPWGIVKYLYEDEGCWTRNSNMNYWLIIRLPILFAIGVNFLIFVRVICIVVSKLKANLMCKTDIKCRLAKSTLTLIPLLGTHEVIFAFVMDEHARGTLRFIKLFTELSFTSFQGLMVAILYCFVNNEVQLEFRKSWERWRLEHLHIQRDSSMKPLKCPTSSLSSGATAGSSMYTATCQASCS
Procedure: The PCR product was cloned into the known animal cell expression vector x0GC/dhfr, thereby constructing the recombinant vector x0GC/GLP-1R.
as §2, with “x0GC/GLP-1R” for “x0GC/GCGR”
as §3

In the case of “SEQ ID NO: 25-Fc conjugate: oxyntomodulin derivative of SEQ ID NO: 25 linked at cysteine 30 via MAL-10K-ALD PEG to immunoglobulin Fc (Example 4) (HXQGTFTSDYSKYLDEKRAKEFVQWLMNTC; PEG linker at Cys30 to immunoglobulin Fc; MOD_RES (2)..(2) Aib; (16)..(20) Ring formation between residues)”, the “blood total cholesterol levels compared to VICTOZA” value ([1]; FIG. 6) is reported as “decrease”, the “blood LDL-cholesterol level compared to VICTOZA” value ([1]; FIG. 7) is reported as “decrease” and the “blood HDL-cholesterol levels compared to VICTOZA” value ([1]; FIG. 8) is reported as “significant increases”. For the same compound, the “HDL/LDL-cholesterol ratio compared to VICTOZA” value ([1]; FIG. 9) was “significant increases”, the “blood triglyceride levels compared to VICTOZA” value ([1]; FIG. 10) was “decrease” and the blood triglyceride levels ([2]; FIG. 1) was “significantly decreased”. The “blood total cholesterol levels” value ([2]; FIG. 2) was “significantly decreased”, the “blood LDL-cholesterol levels” value ([2]; FIG. 3) was “significantly decreased” and the “blood HDL-cholesterol levels” value ([2]; FIG. 4) was “significant increase”. For the same compound, the “blood HDL/LDL-cholesterol ratio” value ([2]; FIG. 5) was “significant increase”.

For CSCC[C@H](NC(=O)[C@H](CC(C)C)NC(=O)[C@H](Cc1c[nH]c2ccccc12)NC(=O)[C@H](CS)NC(=O)[C@@H](NC(=O)[C@H](Cc1ccccc1)NC(=O)[C@H](CCC(=O)O)NC(=O)[C@H](CCCCN)NC(=O)[C@H](C)NC(=O)[C@H](CCCNC(=N)N)NC(=O)[C@H](CCCCN)NC(=O)[C@H](CCC(=O)O)NC(=O)[C@H](CC(=O)O)NC(=O)[C@H](CC(C)C)NC(=O)[C@H](Cc1ccc(O)cc1)NC(=O)[C@H](CCCCN)NC(=O)[C@H](CO)NC(=O)[C@H](Cc1ccc(O)cc1)NC(=O)[C@H](CC(=O)O)NC(=O)[C@H](CO)NC(=O)[C@@H](NC(=O)[C@H](Cc1ccccc1)NC(=O)[C@@H](NC(=O)CNC(=O)[C@H](CCC(N)=O)NC(=O)C(C)(C)NC(=O)[C@@H](N)Cc1c[nH]cn1)[C@@H](C)O)[C@@H](C)O)C(C)C)C(=O)N[C@@H](CC(N)=O)C(=O)N[C@H](C(=O)O)[C@@H](C)O [SEQ ID NO: 23] (H-H[Aib]QGTFTSDYSKYLDEKRAKEFVCWLMNT-OH; C-terminus assumed), the EC50 [3] was 5.8 nM and the EC50 [4] was 2.46 nM.
